Structures can show the parent of a compound that is named as a salt.
Columns and labels:
[1] = Metabolic stability in liver microsomes, rat; conditions: rat, microsomes, pH 7.4
Description: (§1) The solution B is slowly dropped into solution A, and the pH is adjusted to 7.40±0.05.
(§2) • Control drug: 4 μL Verapamil solution (10 mM) is added with 96 μL DMSO and diluted to 400 μM; • Compound to be tested: 4 μL compound to be tested (10 mM) is added with 96 μL normal saline and diluted to 400 μM.
(§3) The microsomes are stored in the refrigerator at −80° C., thawed at room temperature after being taken out, and mixed gently.
(§4) […] PBS (100 mm, pH=7.4) solution is added to the negative sample. The solution is put into water bath at 37° C. and pre-incubated for 10 minutes; • B) After incubation, 2 μL reference drug or compound to be tested (400 μM) are added into each well to start the reaction.

ICR mice = assay: Evaluation of side effects of constipation (defecation time, number, weight); format: in vivo; conditions: for Number of defecating animals: 10 mice per group; for Number of defecating animals / Fecal weight: within 5 hours; for Defecation time: first black stool; for Defecation time / water content of feces / Fecal weight: x ± SE; for Defecation time / water content of feces: only animals that defecate within 5 hours
Description: Constipation side effect is a common side effect of opioid drugs. This patent evaluates the possibility of constipation side effect by the influence of the compound on defecation time, defecation quantity and defecation weight of experimental animals.
ICR mice are randomly divided into 6 groups with 10 mice in each group after adaptive feeding. Fasting for 16-24 h, without stopping drinking, the blank control group is given solvent, during which the normal diet is: (1) the blank control group; (2) Compound diphenoxylate (7.5 mg/kg) group; (3) Low dose (1 mg/kg) group; (4) High dose (5 mg/kg) group of the compound to be tested.
After administration for 30 minutes, the mice in each group are given Chinese ink by gavage. After administration, the mice are kept in a single cage, and the excretion time of the first black stool is recorded. The number and weight (wet weight) of defecation particles in each mouse within 5 hours after administration are recorded. each group of mice are placed in an IVC cage with clean filter paper. The feces of each mouse are collected, put into a sterile 1.5 ml EP tube and stored in an ice box. During the collection, the number of defecation particles of each mouse is recorded, and the wet weight is weighed. After the collected feces are dried, the dry weight of the feces is recorded. Drying conditions: put fresh feces in an oven and bake at 100° C. for 5-10 minutes until the dry weight of feces is constant. The following formula is used to calculate the water content of feces, and the water content of feces (%)=(wet feces mass−dry feces mass)/wet feces mass×100%.
The data required for measurement and observation in this experiment are recorded in the corresponding table. All data are statistically processed by Microsoft Excel, and expressed as “mean standard error”. The data of each group are statistically analyzed by SPSS software package.

κOR = target: T1, κOR (Homo sapiens, UniProt P41145); assay: Opioid receptor competitive binding test, κOR; conditions: compound at 10 μM; [3H]-labeled ligand; CHO cell membranes; ± SD of three measurements
T1 construct: expressed in transfected cells; host or cells: CHO cells
In short: (§5)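 Membranes came from CHO cells expressing each opioid receptor; 20-30 µg protein was incubated with 1-2 nM [3H]-ligand and compound for 30 min at 30°C in Tris-HCl pH 7.4. Nonspecific binding was defined with 1 µM corresponding ligand. Bound radioactivity was filtered and scintillation-counted, and IC50 was converted to Ki via Cheng-Prusoff.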

CYP 3A4 = CYP 3A4 (Homo sapiens, UniProt P08684); assay: biochemical; conditions: CYP 3A4 IC50, human liver microsomes
δOR = target: T2, δOR (Homo sapiens, UniProt P41143); assay: Opioid receptor competitive binding test, δOR; conditions: compound at 10 μM; [3H]-labeled ligand; CHO cell membranes; ± SD of three measurements
T2 construct: expressed in transfected cells; host or cells: CHO cells
In short: as §5

CYP 2C19 = CYP 2C19 (Homo sapiens, UniProt P33261); assay: Inhibition of cytochrome P450 enzyme in human liver microsomes, CYP 2C19
CYP 2D6 = CYP 2D6 (Homo sapiens, UniProt P10635); assay: Inhibition of cytochrome P450 enzyme in human liver microsomes, CYP 2D6
[2] = Metabolic stability in liver microsomes, mouse; conditions: mouse, microsomes, pH 7.4
Description: as §1, §2, §3, §4

[3] = Metabolic stability in liver microsomes, dog; conditions: dog, microsomes, pH 7.4
Description: as §1, §2, §3, §4

μOR = target: T3, μOR (Homo sapiens, UniProt P35372); assay: Opioid receptor competitive binding test, μOR; conditions: compound at 10 μM; [3H]-labeled ligand; CHO cell membranes; ± SD of three measurements
T3 construct: expressed in transfected cells; host or cells: CHO cells
In short: as §5

CYP 2C9 = CYP 2C9 (Homo sapiens, UniProt P11712); assay: Inhibition of cytochrome P450 enzyme in human liver microsomes, CYP 2C9

| SMILES | half-life at 2 μM [1] [min] | microsomal CLint at 2 μM [1] [µL/min/mg] | Number of defecating animals (ICR mice; 1 mg/kg) | Defecation time (ICR mice; 1 mg/kg) [min] | water content of feces (ICR mice; 1 mg/kg) [%] | Fecal weight (ICR mice; 1 mg/kg) [g] | Number of defecating animals (ICR mice; 5 mg/kg) | Defecation time (ICR mice; 5 mg/kg) [min] | water content of feces (ICR mice; 5 mg/kg) [%] | Fecal weight (ICR mice; 5 mg/kg) [g] | κOR binding rate (κOR) [%] | IC50 (CYP 3A4; substrate midazolam) [µM] | IC50 (CYP 3A4; substrate testosterone) [µM] | δOR binding rate (δOR) [%] | IC50 (CYP 2C19) [µM] | IC50 (CYP 2D6) [µM] | half-life at 2 μM [2] [min] | microsomal CLint at 2 μM [2] [µL/min/mg] | half-life at 2 μM [3] [min] | microsomal CLint at 2 μM [3] [µL/min/mg] | also measured |
| --- | --- | --- | --- | --- | --- | --- | --- | --- | --- | --- | --- | --- | --- | --- | --- | --- | --- | --- | --- | --- | --- |
| [2H]C([2H])([2H])N(C[C@@H]1CN(S(=O)(=O)Cc2ccccc2)CC[C@@]1(O)c1cccc(OC)c1)C([2H])([2H])[2H] [II-3hydrochloride] | 5.72 | 697 | 8 | 152.8 ± 4.1 | 43.0 ± 2.1 | 0.3396 ± 0.0965 | 2 | 243.6 ± 10.5 | 37.8 ± 8.9 | 0.0482 ± 0.0053 | 15.3 ± 2.0 | 46.8 | 43.6 | 12.3 ± 2.0 | > 50 | 13.8 | 5.24 | 660 | 5.26 | 663 | μOR binding rate (μOR): 28.2 ± 1.5%; IC50 (CYP 2C9): > 50 µM |
| [2H]C([2H])([2H])Oc1cccc([C@]2(O)CCN(C(=O)Cc3cc(F)c(F)cc3F)C[C@H]2CN(C([2H])([2H])[2H])C([2H])([2H])[2H])c1 [II-11hydrochloride] | 6.46 | 747 | 8 | 190.3 ± 12.7 | 43.5 ± 2.8 | 0.3402 ± 0.0828 | 2 | 265.9 ± 13.1 | 38.2 ± 9.5 | 0.0496 ± 0.0067 | 16.4 ± 2.3 | > 50 | > 50 | 10.4 ± 1.1 | > 50 | 12.8 | 6.01 | 700 | 5.99 | 703 | μOR binding rate (μOR): 24.3 ± 1.9%; IC50 (CYP 2C9): > 50 µM |
| [2H]C([2H])([2H])N(C)C[C@@H]1CN(C(=O)Cc2cc(F)c(F)cc2F)CC[C@@]1(O)c1cccc(OC)c1 [II-7hydrochloride, 1-((3R,4S)-4-hydroxy-4-(3-methoxyphenyl)-3-(((methyl-d3)amino)methyl)-1-piperidinyl)-2(2,4,5-trifluorophenyl)ethyl-1-one] | 5.68 | 689 | 9 | 109.0 ± 8.8 | 44.8 ± 3.2 | 0.3846 ± 0.0798 | 3 | 200.6 ± 7.9 | 38.6 ± 7.9 | 0.0612 ± 0.0079 | 16.6 ± 2.9 | 49.7 | 47.5 | 10.6 ± 2.0 | > 50 | 14.7 | 5.15 | 661 | 5.25 | 669 | μOR binding rate (μOR): 26.1 ± 2.3%; IC50 (CYP 2C9): > 50 µM |

Reference: patent publication US12509421B2, “Preparation and application of deuterated 4-phenyl-4-piperidinols” (priority 2022, dated 2025)
